Experiment: Cytotoxicity in TZM-bl cells (XTT)
Format: cell-based
Settings: human, XTT, 3 days
Experimental: The cytotoxicity of test compounds in TZM-bl cells was also measured by the XTT method described previously^7. […] The soluble intracellular formazan was quantitated colorimetrically at 450 nm 4 h later. The percent of cytotoxicity and the CC50 values were calculated as above. (See Table 4)

SMILES	CC50 at 3 days [µM]
Cc1ccc(-c2ccc(C(=O)NC(CCN(C)C)c3nc(C)c(CO)s3)[nH]2)cc1F (single isomer, unassigned) [Compound 72]	36.4 ± 1
CS(=O)(=O)NCCNC(=O)C(CCCNC(=N)N)NC(=O)c1ccc(-c2ccc(Cl)cc2)[nH]1 (centres unmarked) [Compound 6]	> 37
N=C(N)NCCCC(NC(=O)c1ccc(-c2ccc(Cl)cc2)[nH]1)C(=O)NCCO (centres unmarked) [Compound 4]	> 44
Cc1nc(C(CNC(=N)N)NC(=O)c2ccc(-c3ccc(Cl)c(F)c3)[nH]2)sc1CO (single isomer, unassigned) [Compound 48]	> 36
Cc1nc(C(NC(=O)c2ccc(-c3ccc(Cl)c(F)c3)[nH]2)C2CCCCN2)[nH]c1CO (single isomer, unassigned) [Compound 35]	25 ± 0.5
Cc1nc(C(NC(=O)c2ccc(-c3ccc(Cl)c(F)c3)[nH]2)C2CCCCN2)sc1CO (single isomer, unassigned) [Compound 20]	15.2 ± 0.2
Cc1nc(C(CCN)NC(=O)c2ccc(-c3ccc(Cl)c(F)c3)[nH]2)sc1CO (single isomer, unassigned) [Compound 86]	22.9 ± 0.6
CCN(CC)Cc1ccc(OC)c(CNC(=O)c2ccc(-c3ccc(Cl)cc3)[nH]2)c1 [Compound 13]	14.2 ± 1
N=C(N)Nc1ccc(CC(NC(=O)c2ccc(-c3ccc(Cl)cc3)[nH]2)C(=O)N2CCOCC2)cc1 (centres unmarked) [Compound 3]	> 36
Cc1cc(C(=O)NC(CN)c2nc(C)c(CO)s2)[nH]c1-c1ccc(Cl)cc1 (single isomer, unassigned) [Compound 97]	5.2 ± 0.3
N=C(N)NCCCC(NC(=O)c1ccc(-c2ccc(Cl)cc2)[nH]1)C(=O)NN1CCOCC1 (centres unmarked) [Compound 9]	> 40
Cc1nc(C(CN)NC(=O)c2cnc(-c3ccc(Cl)cc3)[nH]2)sc1CO (single isomer, unassigned) [Compound 93]	> 51
Nc1nc(CNC(=O)c2ccc(-c3ccc(Cl)cc3)[nH]2)n[nH]1 [Compound 2]	> 63
Cc1nc(C(NC(=O)c2ccc(-c3ccc(Cl)cc3)[nH]2)C2CCCCN2)[nH]c1CO (single isomer, unassigned) [Compound 33]	28 ± 0.5
Cc1nc(C(CN)NC(=O)c2ncc(-c3ccc(Cl)cc3)[nH]2)sc1CO (single isomer, unassigned) [Compound 95]	> 51
NS(=O)(=O)c1ccc(CCNC(=O)c2ccc(-c3ccc(Cl)cc3)[nH]2)cc1 [Compound 14]	> 50
Cc1nc(C(NC(=O)c2ccc(-c3ccc(Cl)c(F)c3)[nH]2)C2CCCCN2)sc1CCO (single isomer, unassigned) [Compound 26]	16.1 ± 0.2
Cc1ccc(-c2ccc(C(=O)NC(c3nc(C)c(CCO)s3)C3CCCCN3)[nH]2)cc1F (single isomer, unassigned) [Compound 24]	28.8 ± 1
Cc1nc(C(CN)NC(=O)c2ccc(-c3ccc(Cl)cc3)[nH]2)sc1CO (single isomer, unassigned) [Compound 39]	≥ 34
NCCNC(=O)c1ccc(-c2ccc(Cl)c(F)c2)[nH]1 [Compound 71]	19.4 ± 0.9
O=C(NC(c1ccccc1)c1ccc[nH]1)c1ccc(-c2ccc(Cl)cc2)[nH]1 (centres unmarked) [Compound 1]	> 53
N=C(N)NCCCC(NC(=O)c1ccc(-c2ccccc2)[nH]1)C(=O)NCCO (centres unmarked) [Compound 5]	> 47
NCC(NC(=O)c1ccc(-c2cc(F)c(Cl)c(F)c2)[nH]1)c1ncc(CO)s1 (single isomer, unassigned) [Compound 119]	18 ± 0.5
Cc1nc(C(NC(=O)c2ccc(-c3ccc(Cl)cc3)[nH]2)C2CCCCN2)sc1CCCO (centres unmarked) [Compound 32]	13.7 ± 1
CC(=O)NCC(NC(=O)c1ccc(-c2ccc(Cl)c(F)c2)[nH]1)c1nc(C)c(COC(C)=O)s1 (single isomer, unassigned) [Compound 66]	> 40
Cc1nc(C(NC(=O)c2ccc(-c3ccc(Cl)c(F)c3)[nH]2)C2CCCCN2)sc1CCCO (single isomer, unassigned) [Compound 31]	8.2 ± 0.3
